Experimental data published in publication PMC3634507 (International Journal of Molecular Sciences, 2013).
Where “and” joins values, the source holds several entries; their conditions need not be identical. Identical values can stand only once. Like-named read-outs stand apart in the source and are kept apart here.

Assays:
[1] = target: T1, AChE from Electrophorus electricus (Electrophorus electricus, UniProt O42275); experiment: Ellman's assay, AChE inhibition; format: biochemical
T1 construct: purchased Sigma-Aldrich
T1 sequence (O42275 24-633): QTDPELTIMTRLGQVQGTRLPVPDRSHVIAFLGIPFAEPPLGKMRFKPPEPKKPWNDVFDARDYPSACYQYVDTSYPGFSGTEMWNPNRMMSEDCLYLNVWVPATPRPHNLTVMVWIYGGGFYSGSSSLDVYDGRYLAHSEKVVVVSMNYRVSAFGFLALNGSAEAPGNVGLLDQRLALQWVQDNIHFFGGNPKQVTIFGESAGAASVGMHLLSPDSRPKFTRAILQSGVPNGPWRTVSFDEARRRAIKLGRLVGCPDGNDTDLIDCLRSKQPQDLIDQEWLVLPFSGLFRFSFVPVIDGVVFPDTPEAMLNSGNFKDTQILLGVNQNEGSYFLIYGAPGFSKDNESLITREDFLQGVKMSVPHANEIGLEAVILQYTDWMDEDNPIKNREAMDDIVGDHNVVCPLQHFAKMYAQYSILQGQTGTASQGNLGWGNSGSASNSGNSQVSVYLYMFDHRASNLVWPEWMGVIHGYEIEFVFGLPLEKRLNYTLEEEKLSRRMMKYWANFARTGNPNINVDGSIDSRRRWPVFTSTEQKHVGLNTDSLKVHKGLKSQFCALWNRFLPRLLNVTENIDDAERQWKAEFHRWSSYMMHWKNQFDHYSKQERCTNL

[2] = target: T2, BuChE from horse serum (Equus caballus, UniProt P81908); experiment: biochemical
T2 construct: BuChE from horse serum (2.5 units/1 mL); purchased Sigma-Aldrich; host or cells: horse serum
T2 sequence (P81908 whole entry): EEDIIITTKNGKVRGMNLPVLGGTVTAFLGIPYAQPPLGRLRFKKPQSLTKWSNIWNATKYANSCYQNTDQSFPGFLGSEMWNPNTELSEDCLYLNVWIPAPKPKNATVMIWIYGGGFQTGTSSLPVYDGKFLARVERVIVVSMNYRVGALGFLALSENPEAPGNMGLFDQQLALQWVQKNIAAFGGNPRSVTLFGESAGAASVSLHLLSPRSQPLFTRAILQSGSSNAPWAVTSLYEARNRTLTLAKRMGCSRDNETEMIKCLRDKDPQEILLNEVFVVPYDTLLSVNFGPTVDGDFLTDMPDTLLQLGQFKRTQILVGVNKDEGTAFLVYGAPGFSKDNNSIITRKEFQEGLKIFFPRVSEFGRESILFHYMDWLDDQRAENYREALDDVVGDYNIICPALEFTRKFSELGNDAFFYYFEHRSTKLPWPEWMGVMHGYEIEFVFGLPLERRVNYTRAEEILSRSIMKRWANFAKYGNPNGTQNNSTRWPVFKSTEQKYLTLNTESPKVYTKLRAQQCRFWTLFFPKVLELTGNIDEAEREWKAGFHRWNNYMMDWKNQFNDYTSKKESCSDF
Description: The activity against acetylcholinesterases from electric eel and butyrylcholinesterase from horse serum was determined in spectrophotometric Ellman’s assay.
The activity against cholinesterases was determined in spectrophotometric Ellman’s assay.
The reaction took place in 100 mM phosphate buffer, pH 8.0, containing 0.25 units of AChE or BuChE, 0.3 mmol 5,5′-dithio-bis-(2-nitrobenzoic) acid (DTNB) and 0.45 mmol acetylthiocholine or butyrylthiocholine as substrates. The tested compounds were incubated with the enzyme for 5 min at 25 °C prior to starting the reaction by adding the substrate.

[3] = target: T1, AChE from Electrophorus electricus; conditions: Ellman's assay, compounds 7-9 ref 39, cited from earlier work
[4] = AChE IC50, Ellman's assay, electric eel AChE, pH 8.0, 25 °C
[5] = Ellman's assay, horse serum BuChE, pH 8.0, 25 °C, n.a.: not active, read-out: BuChE IC50
[6] = electric eel AChE, read-out: AChE IC50

Which IC50 [1, 4] does the source give for `O=C1c2ccccc2C(=O)N1CCCCCNCc1ccccc1F` [Compound 6, 2-(5-(2-fluorobenzylamino)pentyl)isoindoline-1,3-dione] here?
The IC50 was 0.0872 µM.

What about the IC50 ([1]; IC50 AChE, Ellman's assay) of the same compound?
The IC50 was 0.087 µM and 0.0872 µM.

What does the source list for `O=C1c2ccccc2C(=O)N1CCCCCCNCc1ccccc1` [Compound 4, 2-(6-(Benzylamino)hexyl)isoindoline-1,3-dione]?
IC50 [1, 4]: 0.33 µM; IC50 ([1]; IC50 AChE, Ellman's assay): 0.33 µM

Which IC50 [1, 4] does the source give for `O=C1c2ccccc2C(=O)N1CCCCCNCc1ccccc1` [Compound 5, 2-(5-(Benzylamino)pentyl)isoindoline-1,3-dione] here?
Its IC50 is 0.17 µM.

And the IC50 ([1]; IC50 AChE, Ellman's assay)?
The IC50 was 0.17 µM.

What does the source list for `O=C1c2ccccc2C(=O)N1CCCCCCNC1CCN(Cc2cccc(Cl)c2)CC1` [Compound 3, 2-(6-(1-(3-Chlorobenzyl)piperidin-4-ylamino)hexyl)isoindoline-1,3-dione]?
IC50 [1, 4]: 44 µM; IC50 [2]: 7.66 µM

What does the source list for `O=C1c2ccccc2C(=O)N1CCCNC1CCN(Cc2ccccc2)CC1` [Compound 1, 2-(3-(1-Benzylpiperidin-4-ylamino)propyl)isoindoline-1,3-dione]?
IC50 [1, 4]: 18.2 µM; IC50 [2, 5]: 22.8 µM

Which IC50 [3, 6] does the source give for `CCN(CC)CCCCCCCN1C(=O)c2ccccc2C1=O` [Compound 8, 2-(7-diethylaminoheptyl)-isoindoline-1,3-dione] here?
Its IC50 is 1.07 µM.

And the IC50 ([3]; read-out: IC50 AChE)?
Its IC50 is 1.07 µM.

Which IC50 [3, 6] does the source give for `CCN(CC)CCCCCCN1C(=O)c2ccccc2C1=O` [Compound 9, 2-(6-diethylaminohexyl)-isoindoline-1,3-dione] here?
The IC50 was 1.23 µM.

What about the IC50 ([3]; read-out: IC50 AChE) of the same compound?
Its IC50 is 1.23 µM.

With `O=C1c2ccccc2C(=O)N1CCCCCCNC1CCN(Cc2ccccc2)CC1` [Compound 2, 2-(6-(1-Benzylpiperidin-4-ylamino)hexyl)isoindoline-1,3-dione] as the compound, how does the IC50 [1, 4] read?
Its IC50 is 53.7 µM.

What about the IC50 [2, 5] of the same compound?
The IC50 was 24.5 µM.
